# pIC50, pKi: −log10 of the molar value.
# What was measured:
# [1] = test system: golden hamsters; assay: Effect of daidzin on free choice ethanol intake in golden hamsters; type: in vivo, golden hamster; conditions: 10 mg/day
# Excerpt: Hamsters were chosen as described in Example 4 based on previous reports that they display high ethanol intake and preference in comparison with several other mammalian species, and that this was correlated with differences in ethanol metabolism. Kulkosky and Cornell, 1979, supra.
# The animals used in these experiments are adult male golden hamsters (outbred, Lakeview Lak: LVG[SYR]), purchased from Charles River Laboratories, Wilmington, Mass. 01887. Upon arrival, hamsters are housed (4 per cage) with ad libitum access to food and tap water in a room maintained at 23° C. on a 12/12 light/dark cycle (light on 0600-1800 hr.) for 1 week. Following this acclimation period, each hamster is transferred to an individual stainless steel metabolic cage (26×18×17.5 cm) with a wire mesh floor for the remainder of the experiment. Each cage is equipped with a stainless steel food hopper located on the right side of the front wall which was kept filled with food. Two 50 ml drinking bottles fitted with stainless steel sipper tubes are placed on the left side of the front wall. Under the sipper tubes are funnels which collect and direct spillage to tubes placed outside of the cages. Fluids are provided mainly during the dark cycle (1800-0800 hr.) and fluid intake is measured in the morning at the same time each day, for example, at 0800 hr. During this baseline period, for example, 8 days, two drinking solutions are provided for each animal. One is tap water; the other is a 30% v/v solution of ethanol (100% USP). The position of the two drinking bottles on each cage is alternated daily to prevent the development of positional preference.
# In other experiments, subcutaneous administration is preferably omitted, and each hamster receives only daily oral administration by feeding as described herein. […] This decline in alcohol intake was accompanied by a concomitant increase in water intake.
# [2] = high doses; cited from earlier work
# [3] = physchem
# [4] = biological target: T1, ALDH-II (Homo sapiens, UniProt P00352); assay: Inhibition kinetics of ALDH-II, initial velocity method, formaldehyde as substrate
# T1 sequence (P00352 1-501): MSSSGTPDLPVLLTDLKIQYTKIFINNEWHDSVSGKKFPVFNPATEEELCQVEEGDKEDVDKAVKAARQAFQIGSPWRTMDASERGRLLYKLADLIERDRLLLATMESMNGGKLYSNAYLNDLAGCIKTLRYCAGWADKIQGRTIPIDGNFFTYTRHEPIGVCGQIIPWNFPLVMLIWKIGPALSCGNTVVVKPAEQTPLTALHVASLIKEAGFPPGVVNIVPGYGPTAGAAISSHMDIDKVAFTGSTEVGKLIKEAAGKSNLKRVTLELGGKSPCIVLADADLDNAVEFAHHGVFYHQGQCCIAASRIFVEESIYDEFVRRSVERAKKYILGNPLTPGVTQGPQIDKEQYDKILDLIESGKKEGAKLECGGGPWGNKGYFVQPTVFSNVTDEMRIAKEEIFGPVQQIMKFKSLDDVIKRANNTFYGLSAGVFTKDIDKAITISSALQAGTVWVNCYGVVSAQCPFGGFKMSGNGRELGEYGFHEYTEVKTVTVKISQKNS
# Experimental: The inhibition kinetics were studied by the initial velocity method (Dixon and Webb, 1979, Enzymes, 3rd ed., Longman, Great Britain). […] The initial reaction rates were measured in a pH 9.5 assay medium 0.1 11 in glycine-NaOH, 0. […] The enzyme reaction rates were followed by monitoring the production of NADH at 340 nm (ε-6.22 mM^-1 cm^-1) with a Varian Cary 219 spectrophotometer thermostated at 25° C. The kinetic data were analyzed by standard graphical methods.
# [5] = biological target: T2, ALDH-I (Homo sapiens, UniProt P05091); assay: Reversibility of ALDH-I inhibition (preincubation, then dilution); type: biochemical; set-up: A liver sample (50 g wet weight) with the usual Caucasian ALDH phenotype (both ALDH-I and ALDH-II present); from tissue; host or cells: human liver (autopsy), purified by CM-52, AMP-agarose and DEAE HPLC
# T2 sequence (P05091 18-517): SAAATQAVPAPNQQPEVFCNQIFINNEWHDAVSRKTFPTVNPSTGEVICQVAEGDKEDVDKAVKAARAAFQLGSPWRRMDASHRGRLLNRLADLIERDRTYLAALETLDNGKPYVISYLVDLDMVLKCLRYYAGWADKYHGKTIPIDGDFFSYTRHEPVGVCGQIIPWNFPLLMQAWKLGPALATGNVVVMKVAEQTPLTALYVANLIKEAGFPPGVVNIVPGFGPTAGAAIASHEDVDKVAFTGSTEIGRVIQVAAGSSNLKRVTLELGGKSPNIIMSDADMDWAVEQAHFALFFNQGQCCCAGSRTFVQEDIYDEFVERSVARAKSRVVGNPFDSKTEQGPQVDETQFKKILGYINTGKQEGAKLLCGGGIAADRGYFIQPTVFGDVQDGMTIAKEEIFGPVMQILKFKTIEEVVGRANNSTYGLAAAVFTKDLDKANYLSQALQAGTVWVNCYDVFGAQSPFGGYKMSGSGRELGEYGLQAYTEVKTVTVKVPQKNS
# [6] = biological target: T1, ALDH-II; assay: ALDH-II inhibition by structurally related compounds, acetaldehyde as substrate; type: biochemical; set-up: A liver sample (50 g wet weight) with the usual Caucasian ALDH phenotype (both ALDH-I and ALDH-II present); from tissue; host or cells: human liver (autopsy), purified by CM-52, AMP-agarose and DEAE HPLC
# Experimental: *ALDH activities were assayed at 25° C. in 0.1 M sodium
# pyrophosphate buffer pH 9.5 containins 0.15 M KCl, 1 mM NAD^+, various
# concentrations of inhibitors and 5 and 200 μM acetaldehyde for ALDH-I
# and ALDH-II, respectively.
# For the study of the inhibition of ALDH-I by structurally related compounds to generate the data shown in Tables IV and V, each individual compound was dissolved at different concentrations in methanol and was added to the assay medium as 10 μL aliquots. For controls, 10 […] of methanol was added to the assay medium. In a standard ALDH-I assay, the assay medium contains 0.1 M sodium pyrophosphate pH 9.5, 0.15 M KCl, 1 mM NAD^+, 1% methanol, 5 μM acetaldehyde, 5-10 nM ALDH-I and various concentrations of inhibitor. The enzyme reaction rates were measured by monitoring the production of NADH at 340 nm (ε=6.22 mM^-1 cm^-1) with a Varian Cary 219 spectrophotometer thermostated at 25° C. (Fong et al., 1989, supra). The inhibition of ALDH-I by the inhibitors was calculated as: [formula]
# where Vo is the enzyme reaction rate measured in the absence of inhibitor, and where Vi is the enzyme reaction rate measured in the presence of inhibitor. […] IC50 values are related to the underlying Ki values.
compound,measurement,setting,value
"O=c1c(-c2ccc(O)cc2)coc2cc(O[C@@H]3O[C@H](CO)[C@@H](O)[C@H](O)[C@H]3O)ccc12 [Daidzin, 7-glucoside of daidzein]","effect apparent after the first dose, hamster Number 9",[1],fourth day after the first dose
same,"start of decline of alcohol intake after the first dose, hamster Number 6",[1],2 days
same,total fluid intake during daidzin administration,[1]; hamster Number 6,slightly decreased
same,total water intake (water bottle plus water in ethanol mixture),[1]; hamster Number 6,stayed nearly constant
same,estrogenic activity,[2],estrogenic activity at high doses
same,solubility,"[3]; 10% aqueous polyvinylpyrrolidone 40, organic solvent or mixture",~2000 µM
same,solubility,"[3]; 20% peg 400 in water, organic solvent or mixture",4500 µM
same,solubility,"[3]; 20% peg/water, beta-cyclodextrin, organic solvent or mixture",9400 µM
same,solubility,[3]; saturated digitonin solution,~2000 µM
same,solubility,[3]; water,200 µM
same,pKi,[4],4.70
same,reversibility of ALDH-I inhibition,[5],reversible
same,inhibition at 0.001 µM,[5]; read-out: final inhibition after 100-fold dilution,2%
same,inhibition at 0.1 µM,[5]; read-out: inhibition after preincubation with daidzin,70%
same,pIC50,[6],4.70

# — US6255497A, “Method for the inhibition of ALDH-I useful in the treatment of alcohol dependence or alcohol abuse” (priority 1998, dated 2001)
